The target of this assay is T1, CDK6 (Homo sapiens, UniProt Q00534).
T1 construct: endogenous in cells; host or cells: BV173
Kind of assay: CDK6 DC50 determination in BV173 cells (immunoblot densitometry). The assay is classed as cell-based. The note with it: Ph+ BV173 ALL cells, densitometry of CDK6 band intensity; read-out: degradation constant DC50 of CDK6. As to the method:
Membranes were incubated with 1:10,000 HRP-conjugated secondary antibodies (Thermo Fisher Scientific, anti-mouse-HRP #31430, or anti rabbit-HRP #31460) and signals were visualized by chemiluminescent reaction using SuperSignal West Pico (Thermo Fisher Scientific #34580) or Dura (Thermo Fisher Scientific #34075) Chemiluminescent Substrates. When different antibodies were used to probe the same nitrocellulose membrane, previous signals were removed by incubation with 0.5% sodium azide for 10 minutes at RT or by stripping in 62 mM Tris-HCL pH 6.8, 2% SDS, 0.7% β-mercaptoethanol for 20 min at 50° C. The degradation constant (DC50) for the tested PROTACs was calculated in GraphPad Prism 6.0 software by plotting the densitometric values of CDK4/6 intensity normalized by the intensity of the loading control.
CDK6 DC50 determination in PROTAC YX-2-107-treated BV173 cells. PROTAC YX-2-107 concentration for half-maximal degradation (DC50) of CDK6 was assessed by immunoblot analysis of CDK6 in cells treated with PROTAC at various doses. Levels of CDK6 were measured by densitometric analysis using ImageJ software and normalized by the levels of β-ACTIN. The DC50 was determined by analyzing the dose-effect curve in Graphpad PRISM
For orientation: Immunoblotting shows a protein as a band on a membrane.

The results in this text go back to patent US20220002291A1, “PROTEOLYSIS-TARGETING CHIMERAS” (The Wistar Institute of Anatomy and Biology, priority 2018, published 2022).

In general, DC50 refers to the concentration at which degradation of the target reaches its halfway point.

T1 sequence (Q00534 whole entry): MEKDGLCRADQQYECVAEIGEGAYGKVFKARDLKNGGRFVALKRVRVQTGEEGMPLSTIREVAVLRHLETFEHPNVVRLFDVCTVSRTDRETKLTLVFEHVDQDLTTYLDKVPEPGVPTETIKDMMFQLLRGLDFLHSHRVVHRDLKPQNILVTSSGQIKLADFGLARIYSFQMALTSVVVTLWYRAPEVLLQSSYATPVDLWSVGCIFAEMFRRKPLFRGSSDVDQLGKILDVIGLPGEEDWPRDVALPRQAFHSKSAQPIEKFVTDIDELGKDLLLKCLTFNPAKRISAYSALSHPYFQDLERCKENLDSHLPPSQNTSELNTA

Consider `CC(=O)c1c(C)c2cnc(Nc3ccc(N4CCN(C(=O)CNCCCCNC(=O)COc5cccc6c5C(=O)N(C5CCC(=O)NC5=O)C6=O)CC4)cn3)nc2n(C2CCCC2)c1=O` (stereo not shown) [YX-2-107], for which the DC50 is about 4 nM.
